{"source": "patent US20240050392A1", "about": "“COMPOSITIONS AND METHODS FOR IMPROVED TREATMENT OF PLATINUM-BASED CHEMOTHERAPEUTIC RESISTANT TUMORS” (THE REGENTS OF THE UNIVERSITY OF THE COLORADO, A BODY …, priority 2021, published 2024)", "key": {"TCCSUP cells": {"system": "TCCSUP cells", "assay": "Intracellular cisplatin measurements using CyTOF in TCCSUP cells", "type": "cell-based, human", "protocol": "To validate the role of LRRC8D in cisplatin import, intracellular cisplatin was measured in the TCCSUP cells. […] In contrast to the KU1919, 5637, and T24 cells (FIGS. 12C-12E), NPEPPS knockdown had very little effect on the GemCis-resistant cells (median Pt 195=28) (FIGS. 12I-12J) given that the TCCSUP-GemCis cells have a focal deletion of LRRC8D (FIGS. 9A-9B). However, when LRRC8D was overexpressed, cisplatin import was restored to the levels of the parental cell line (FIG. 12K).\nshRNA-mediated knockdown experiments. Lentiviral production and transduction were carried out as follows. In brief, plasmids from the RNAi Consortium (TRC) collection (TRC construct numbers TRCN0000073838, TRCN0000073839 and TRCN0000073840) were used for targeting NPEPPS were selected based on predicted knockdown efficiency; non-targeting controls used were SHC002 and SHC016. 2 μg of target shRNA construct and 2 μg of 3:1 ratio of psPAX2 (Addgene) and pMD2.G (Addgene) were transfected into HEK293FT cells using 2 μg of Polyethylenimine (Polysciences). Lentiviral particles containing media was filtered using 0.45 μm cellulose acetate syringe filter and used for transduction. Puromycin selection was performed at doses used for CRISPR library screening or in some cases, cells were re-selected with higher doses of puromycin (10 μg/mL), in order to ensure complete elimination of non-transduced cells. Selected cells were frozen at early passage and early passage cells were used for all experiments.\nIntracellular cisplatin measurements using CyTOF. Cell lines were cultured for several passages in IMDM+10% FBS. […] After dissociation, cells were counted by Trypan blue staining and then placed in separate tubes at 3×10^5 cells. […] Relative cisplatin intensity (defined by ^195Platinum isotopic mass intensity) was analyzed among nucleated ^191Iridium+^193Iridium+events defined by Boolean gating within FlowJo 10.7.1."}, "[1]": {"conditions": "cited from earlier work"}, "[2]": {"target": "T1, volume regulated anion channel (VRAC), LRRC8A and LRRC8D (Homo sapiens, UniProt Q7L1W4+Q8IWT6)", "T1 sequence (Q8IWT6 1-810)": "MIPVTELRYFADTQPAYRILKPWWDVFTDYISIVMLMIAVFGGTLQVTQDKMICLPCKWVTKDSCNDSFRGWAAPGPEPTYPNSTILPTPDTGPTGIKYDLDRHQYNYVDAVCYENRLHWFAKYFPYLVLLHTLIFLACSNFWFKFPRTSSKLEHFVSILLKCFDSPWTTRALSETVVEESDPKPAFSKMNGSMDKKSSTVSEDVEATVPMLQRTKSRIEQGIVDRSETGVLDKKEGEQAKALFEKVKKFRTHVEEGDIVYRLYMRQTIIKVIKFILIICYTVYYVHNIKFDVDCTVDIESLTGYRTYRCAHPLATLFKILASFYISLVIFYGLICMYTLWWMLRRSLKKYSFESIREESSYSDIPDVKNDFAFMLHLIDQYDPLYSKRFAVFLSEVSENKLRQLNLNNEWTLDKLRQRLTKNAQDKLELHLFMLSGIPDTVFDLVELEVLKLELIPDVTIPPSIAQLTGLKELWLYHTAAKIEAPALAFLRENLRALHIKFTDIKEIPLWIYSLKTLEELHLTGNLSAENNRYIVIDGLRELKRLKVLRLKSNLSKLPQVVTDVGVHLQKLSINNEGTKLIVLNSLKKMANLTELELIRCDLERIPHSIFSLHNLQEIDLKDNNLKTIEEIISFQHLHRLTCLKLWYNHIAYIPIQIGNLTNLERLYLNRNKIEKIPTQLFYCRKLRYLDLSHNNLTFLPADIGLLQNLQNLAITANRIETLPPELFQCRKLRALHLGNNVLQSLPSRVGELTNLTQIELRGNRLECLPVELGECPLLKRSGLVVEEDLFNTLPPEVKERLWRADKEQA", "T1 sequence (Q7L1W4 1-858)": "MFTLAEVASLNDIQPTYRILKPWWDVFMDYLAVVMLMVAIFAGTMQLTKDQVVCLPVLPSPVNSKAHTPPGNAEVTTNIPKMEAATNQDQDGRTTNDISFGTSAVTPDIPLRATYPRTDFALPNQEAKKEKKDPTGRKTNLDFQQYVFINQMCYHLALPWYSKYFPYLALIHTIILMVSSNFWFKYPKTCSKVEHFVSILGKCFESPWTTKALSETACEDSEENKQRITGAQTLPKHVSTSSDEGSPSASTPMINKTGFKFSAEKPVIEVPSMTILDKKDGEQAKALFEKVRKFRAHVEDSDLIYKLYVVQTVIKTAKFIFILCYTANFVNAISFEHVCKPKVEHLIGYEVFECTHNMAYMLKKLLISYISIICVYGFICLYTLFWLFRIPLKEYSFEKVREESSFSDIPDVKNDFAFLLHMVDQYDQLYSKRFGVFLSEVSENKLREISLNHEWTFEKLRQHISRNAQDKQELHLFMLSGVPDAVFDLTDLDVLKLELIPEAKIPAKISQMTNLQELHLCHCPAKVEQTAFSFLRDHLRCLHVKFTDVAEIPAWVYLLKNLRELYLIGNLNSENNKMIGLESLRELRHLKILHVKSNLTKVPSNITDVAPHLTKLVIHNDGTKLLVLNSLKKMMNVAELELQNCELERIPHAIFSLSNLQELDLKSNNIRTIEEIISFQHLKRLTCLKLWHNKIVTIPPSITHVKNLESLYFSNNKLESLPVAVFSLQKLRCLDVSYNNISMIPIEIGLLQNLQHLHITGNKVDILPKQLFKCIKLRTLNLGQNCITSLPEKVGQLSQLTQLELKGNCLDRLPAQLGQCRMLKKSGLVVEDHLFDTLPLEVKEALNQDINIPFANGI", "conditions": "as reported; cited from earlier work"}, "[3]": {"system": "KU1919-GemCis and KU1919 parental cells", "assay": "Drug dose response with NPEPPS knockdown or overexpression", "type": "cell-based, human"}}, "data": [{"smiles": "N.N.[Cl][Pt][Cl]", "note": "[cisplatin]", "values": [{"measurement": "intracellular cisplatin, median Pt 195", "setting": "TCCSUP cells; TCCSUP parental cells", "value": 189}, {"measurement": "intracellular cisplatin, median Pt 195", "setting": "TCCSUP cells; TCCSUP-GemCis cells", "value": 22}, {"measurement": "intracellular cisplatin, median Pt 195", "setting": "TCCSUP cells; TCCSUP-GemCis cells, NPEPPS knockdown", "value": 28}, {"measurement": "maximum concentration of cisplatin in patients", "setting": "[1]", "value": 14, "unit": "µM"}, {"measurement": "share of intracellular cisplatin transported through VRAC channels", "setting": "[2]", "value": "50-70%"}, {"measurement": "effect of NPEPPS knockdown on drug response", "setting": "[3]; KU1919-GemCis cells, stable NPEPPS shRNA knockdown", "value": "preferentially enhanced response"}, {"measurement": "effect of NPEPPS overexpression on drug response", "setting": "[3]; KU1919 parental lines overexpressing NPEPPS", "value": "increased treatment resistance"}]}]}
